Data: the NIST ThermoML archive (doi:10.1021/je4009415)
± gives the expanded uncertainty stated by the source.

Assay: xn = mol fraction of the nth substance listed
Details: Liquid, Vibrating tube method

CCC(=O)OC [methyl propanoate] + CCCCCCC
Details	mass density [kg/m3]
288.15 K, x1 = 0.0584	696.1 ± 0.27
288.15 K, x1 = 0.1524	710.11 ± 0.29
288.15 K, x1 = 0.2121	719.49 ± 0.31
288.15 K, x1 = 0.2626	728.22 ± 0.33
288.15 K, x1 = 0.2841	731.88 ± 0.34
288.15 K, x1 = 0.3577	745.5 ± 0.37
288.15 K, x1 = 0.4021	754.13 ± 0.39
288.15 K, x1 = 0.4565	765.31 ± 0.41
288.15 K, x1 = 0.5036	775.51 ± 0.44
288.15 K, x1 = 0.5554	787.28 ± 0.47
288.15 K, x1 = 0.6032	798.81 ± 0.5
288.15 K, x1 = 0.651	810.73 ± 0.53
288.15 K, x1 = 0.7008	824.05 ± 0.57
288.15 K, x1 = 0.742	835.61 ± 0.61
288.15 K, x1 = 0.7927	850.46 ± 0.66
288.15 K, x1 = 0.8457	866.96 ± 0.71
288.15 K, x1 = 0.953	903.48 ± 0.84
288.15 K, x1 = 1	921.21 ± 0.89
298.15 K, x1 = 0.0606	687.94 ± 0.27
298.15 K, x1 = 0.1046	694.01 ± 0.28
298.15 K, x1 = 0.1706	703.97 ± 0.3
298.15 K, x1 = 0.2332	713.99 ± 0.32
298.15 K, x1 = 0.2863	722.89 ± 0.34
298.15 K, x1 = 0.332	730.95 ± 0.35
298.15 K, x1 = 0.3827	740.59 ± 0.37
298.15 K, x1 = 0.4242	748.73 ± 0.39
298.15 K, x1 = 0.4831	760.98 ± 0.42
298.15 K, x1 = 0.5328	771.82 ± 0.45
298.15 K, x1 = 0.5887	784.89 ± 0.49
298.15 K, x1 = 0.6395	797.24 ± 0.52
298.15 K, x1 = 0.6831	808.46 ± 0.55
298.15 K, x1 = 0.733	821.94 ± 0.59
298.15 K, x1 = 0.7758	834.28 ± 0.63
298.15 K, x1 = 0.8196	847.29 ± 0.67
298.15 K, x1 = 0.8646	861.68 ± 0.72
298.15 K, x1 = 0.9035	874.46 ± 0.76
298.15 K, x1 = 0.9591	893.83 ± 0.83
298.15 K, x1 = 1	909.1 ± 0.88
308.15 K, x1 = 0.046	676.88 ± 0.27
308.15 K, x1 = 0.0974	683.97 ± 0.28
308.15 K, x1 = 0.1499	691.6 ± 0.29
308.15 K, x1 = 0.2093	700.71 ± 0.31
308.15 K, x1 = 0.2472	706.83 ± 0.32
308.15 K, x1 = 0.2655	709.84 ± 0.33
308.15 K, x1 = 0.3021	716.16 ± 0.34
308.15 K, x1 = 0.3462	723.99 ± 0.36
308.15 K, x1 = 0.3973	733.51 ± 0.38
308.15 K, x1 = 0.4379	741.49 ± 0.4
308.15 K, x1 = 0.5001	754.33 ± 0.43
308.15 K, x1 = 0.5482	764.86 ± 0.46
308.15 K, x1 = 0.6013	777.11 ± 0.49
308.15 K, x1 = 0.6438	787.52 ± 0.52
308.15 K, x1 = 0.7002	801.92 ± 0.56
308.15 K, x1 = 0.7516	815.93 ± 0.6
308.15 K, x1 = 0.7947	828.3 ± 0.64
308.15 K, x1 = 0.8541	846.5 ± 0.7
308.15 K, x1 = 0.8904	858.19 ± 0.74
308.15 K, x1 = 0.9494	878.31 ± 0.81
308.15 K, x1 = 1	896.91 ± 0.86
318.15 K, x1 = 0.054	669.26 ± 0.27
318.15 K, x1 = 0.1006	675.53 ± 0.28
318.15 K, x1 = 0.1635	684.64 ± 0.29
318.15 K, x1 = 0.1984	689.88 ± 0.3
318.15 K, x1 = 0.2627	699.98 ± 0.32
318.15 K, x1 = 0.2892	704.22 ± 0.33
318.15 K, x1 = 0.3492	714.64 ± 0.36
318.15 K, x1 = 0.3962	723.32 ± 0.38
318.15 K, x1 = 0.4482	733.48 ± 0.4
318.15 K, x1 = 0.5006	744.15 ± 0.42
318.15 K, x1 = 0.554	755.69 ± 0.45
318.15 K, x1 = 0.5928	764.54 ± 0.48
318.15 K, x1 = 0.6531	779.07 ± 0.52
318.15 K, x1 = 0.7022	791.53 ± 0.55
318.15 K, x1 = 0.7463	803.36 ± 0.59
318.15 K, x1 = 0.796	817.45 ± 0.63
318.15 K, x1 = 0.8421	831.26 ± 0.67
318.15 K, x1 = 0.8911	846.73 ± 0.72
318.15 K, x1 = 0.9487	866.17 ± 0.79
318.15 K, x1 = 1	884.71 ± 0.84
328.15 K, x1 = 0.0434	659.02 ± 0.27
328.15 K, x1 = 0.1	666.42 ± 0.28
328.15 K, x1 = 0.1539	673.86 ± 0.29
328.15 K, x1 = 0.2137	682.78 ± 0.31
328.15 K, x1 = 0.263	690.45 ± 0.32
328.15 K, x1 = 0.361	707.07 ± 0.36
328.15 K, x1 = 0.3858	711.54 ± 0.37
328.15 K, x1 = 0.4619	725.95 ± 0.4
328.15 K, x1 = 0.5057	734.85 ± 0.42
328.15 K, x1 = 0.5548	745.3 ± 0.45
328.15 K, x1 = 0.6006	755.62 ± 0.48
328.15 K, x1 = 0.6513	767.59 ± 0.51
328.15 K, x1 = 0.7013	780.04 ± 0.54
328.15 K, x1 = 0.7484	792.52 ± 0.58
328.15 K, x1 = 0.7954	805.67 ± 0.62
328.15 K, x1 = 0.8441	820.03 ± 0.66
328.15 K, x1 = 0.8954	836.18 ± 0.72
328.15 K, x1 = 0.9351	849.33 ± 0.76
328.15 K, x1 = 1	872.22 ± 0.83

CCC(=O)OC [methyl propanoate] + CCCCCCCCC
Details	mass density [kg/m3]
288.15 K, x1 = 0.0638	727.45 ± 0.26
288.15 K, x1 = 0.0962	730.67 ± 0.27
288.15 K, x1 = 0.1483	736.11 ± 0.29
288.15 K, x1 = 0.2104	743.23 ± 0.31
288.15 K, x1 = 0.2364	746.3 ± 0.32
288.15 K, x1 = 0.2979	754.2 ± 0.34
288.15 K, x1 = 0.3526	761.75 ± 0.36
288.15 K, x1 = 0.4001	768.71 ± 0.39
288.15 K, x1 = 0.4322	773.78 ± 0.4
288.15 K, x1 = 0.4985	784.9 ± 0.44
288.15 K, x1 = 0.5504	794.42 ± 0.47
288.15 K, x1 = 0.5954	803.25 ± 0.5
288.15 K, x1 = 0.6449	813.66 ± 0.53
288.15 K, x1 = 0.693	824.65 ± 0.57
288.15 K, x1 = 0.7454	837.57 ± 0.61
288.15 K, x1 = 0.7911	849.84 ± 0.65
288.15 K, x1 = 0.8391	863.79 ± 0.7
288.15 K, x1 = 0.8911	880.25 ± 0.76
288.15 K, x1 = 0.9477	900.31 ± 0.83
288.15 K, x1 = 1	921.21 ± 0.89
298.15 K, x1 = 0.0519	718.48 ± 0.26
298.15 K, x1 = 0.1041	723.58 ± 0.27
298.15 K, x1 = 0.1448	727.66 ± 0.29
298.15 K, x1 = 0.1889	732.52 ± 0.3
298.15 K, x1 = 0.2498	739.65 ± 0.32
298.15 K, x1 = 0.2949	745.26 ± 0.34
298.15 K, x1 = 0.3489	752.48 ± 0.36
298.15 K, x1 = 0.409	761.11 ± 0.39
298.15 K, x1 = 0.4474	767.1 ± 0.41
298.15 K, x1 = 0.5033	776.37 ± 0.44
298.15 K, x1 = 0.6015	794.61 ± 0.49
298.15 K, x1 = 0.6609	807.17 ± 0.54
298.15 K, x1 = 0.7048	817.21 ± 0.57
298.15 K, x1 = 0.751	828.64 ± 0.61
298.15 K, x1 = 0.7937	839.79 ± 0.65
298.15 K, x1 = 0.8444	854.36 ± 0.7
298.15 K, x1 = 0.9002	871.96 ± 0.76
298.15 K, x1 = 0.9516	890.02 ± 0.82
298.15 K, x1 = 1	909.1 ± 0.88
308.15 K, x1 = 0.0618	711.31 ± 0.26
308.15 K, x1 = 0.1007	715.02 ± 0.27
308.15 K, x1 = 0.165	721.49 ± 0.29
308.15 K, x1 = 0.1941	724.61 ± 0.3
308.15 K, x1 = 0.2601	732.22 ± 0.32
308.15 K, x1 = 0.2902	735.94 ± 0.34
308.15 K, x1 = 0.3585	744.82 ± 0.36
308.15 K, x1 = 0.4102	752.25 ± 0.38
308.15 K, x1 = 0.4567	759.29 ± 0.41
308.15 K, x1 = 0.4962	765.69 ± 0.43
308.15 K, x1 = 0.5559	776.15 ± 0.46
308.15 K, x1 = 0.5986	784.17 ± 0.49
308.15 K, x1 = 0.6514	794.91 ± 0.52
308.15 K, x1 = 0.699	805.43 ± 0.56
308.15 K, x1 = 0.7476	817.03 ± 0.6
308.15 K, x1 = 0.796	829.48 ± 0.64
308.15 K, x1 = 0.8477	844.14 ± 0.69
308.15 K, x1 = 0.8947	858.8 ± 0.74
308.15 K, x1 = 0.9504	877.94 ± 0.81
308.15 K, x1 = 1	896.91 ± 0.86
318.15 K, x1 = 0.0587	703.05 ± 0.26
318.15 K, x1 = 0.1139	708.17 ± 0.28
318.15 K, x1 = 0.141	710.78 ± 0.28
318.15 K, x1 = 0.2148	718.51 ± 0.31
318.15 K, x1 = 0.2624	723.9 ± 0.32
318.15 K, x1 = 0.3145	730.23 ± 0.34
318.15 K, x1 = 0.3621	736.39 ± 0.36
318.15 K, x1 = 0.394	740.75 ± 0.38
318.15 K, x1 = 0.4491	748.79 ± 0.4
318.15 K, x1 = 0.4889	755.06 ± 0.42
318.15 K, x1 = 0.5458	764.61 ± 0.45
318.15 K, x1 = 0.6011	774.72 ± 0.48
318.15 K, x1 = 0.6538	785.15 ± 0.52
318.15 K, x1 = 0.6972	794.52 ± 0.55
318.15 K, x1 = 0.7464	805.96 ± 0.59
318.15 K, x1 = 0.7904	816.99 ± 0.62
318.15 K, x1 = 0.8414	831.04 ± 0.67
318.15 K, x1 = 0.8899	845.62 ± 0.72
318.15 K, x1 = 0.9498	865.72 ± 0.79
318.15 K, x1 = 1	884.71 ± 0.84
328.15 K, x1 = 0.0562	694.8 ± 0.26
328.15 K, x1 = 0.0989	698.61 ± 0.27
328.15 K, x1 = 0.1503	703.45 ± 0.29
328.15 K, x1 = 0.1813	706.43 ± 0.3
328.15 K, x1 = 0.194	707.71 ± 0.3
328.15 K, x1 = 0.2651	715.48 ± 0.32
328.15 K, x1 = 0.3128	721.06 ± 0.34
328.15 K, x1 = 0.3582	726.72 ± 0.36
328.15 K, x1 = 0.4509	739.58 ± 0.4
328.15 K, x1 = 0.5045	747.9 ± 0.42
328.15 K, x1 = 0.5545	756.22 ± 0.45
328.15 K, x1 = 0.6005	764.42 ± 0.48
328.15 K, x1 = 0.6523	774.55 ± 0.51
328.15 K, x1 = 0.7484	795.44 ± 0.58
328.15 K, x1 = 0.7963	807.38 ± 0.62
328.15 K, x1 = 0.8469	821.01 ± 0.66
328.15 K, x1 = 0.9004	836.96 ± 0.72
328.15 K, x1 = 0.9501	853.63 ± 0.78
328.15 K, x1 = 1	872.22 ± 0.83
